Experimental data as given in ChEMBL document CHEMBL3301361, “Experimental in vitro DMPK and physicochemical data on a set of publicly disclosed compounds”.
In brackets after ≈: the same amount, converted by molar mass.

Tests used:
[1] = physchem; conditions: octan-1-ol/water
[2] = in vitro; conditions: human
[3] = in vitro; conditions: human, plasma, PPB
[4] = physchem; conditions: pH 7.4 buffer

SMILES	logD ([1]; pH 7.4, LogD7.4)	microsomal CLint ([2]; liver microsomes)	fraction unbound at 5 h [3]	microsomal CLint ([2]; microsomes)	solubility thermodynamic [4]	logD ([1]; pH 7.4)
Cc1ccc(C(=O)NC(C)C)cc1-n1cnc2ccc(N3CCN(C)CC3)cc2c1=O	1.56	< 3 µL/min/mg				
Nc1ccc2nc(SCC(=O)NC3CCN(Cc4ccc(Cl)c(Cl)c4)CC3)sc2c1		59 µL/min/mg	0.262			
CC(C)Oc1cc(-n2cnc3ccc(N[C@@H](C)c4ccc(F)cn4)nc32)n[nH]1			0.0581	> 150 µL/min/mg		
Cc1ccc(S(=O)(=O)N(C)C(=O)N2CCC(N3CCC(Oc4ccc(Cl)c(Cl)c4)CC3)CC2)cc1		10 µL/min/mg	0.0171			
O=C(NS(=O)(=O)c1ccccc1Cl)N1CCC(N2CCC(Oc3ccc(Cl)c(Cl)c3)CC2)CC1		< 3 µL/min/mg	0.0307			
COc1ccccc1S(=O)(=O)NC(=O)N1CCC(N2CCC(Oc3ccc(Cl)c(Cl)c3)CC2)CC1		< 3 µL/min/mg	0.0409			
Cc1ccc(S(=O)(=O)NC(=O)N2CCC(N3CCC(Oc4ccc(Cl)cc4C)CC3)CC2)cc1	1.79	6 µL/min/mg				
CS(=O)(=O)C1(c2cc(N3CCOCC3)nc(-c3cccc4[nH]ccc34)n2)CC1		11.2 µL/min/mg			4.6 µM (≈ 1.83 µg/mL)	
Cc1ccc2[nH]ccc2c1-c1nc(N2CCOCC2)cc(C2(S(C)(=O)=O)CC2)n1	1.7	5.75 µL/min/mg			95.5 µM (≈ 39.4 µg/mL)	
C[C@H](CO)Nc1nc(SCc2ccco2)nc2nc(N)sc12		5 µL/min/mg	0.117			
OC[C@H]1C[C@@H](n2nnc3c(N[C@@H]4C[C@H]4c4ccccc4)nc(SCCC(F)(F)F)nc32)[C@H](O)[C@@H]1O				< 3 µL/min/mg	0.3 µM (≈ 0.153 µg/mL)	4.06
CCCSc1nc(N[C@@H]2C[C@H]2c2ccccc2)c2nnn([C@@H]3C[C@H](OCCO)[C@@H](O)[C@H]3O)c2n1	3.87	< 3 µL/min/mg			1 µM (≈ 0.487 µg/mL)	
CC(C)Cn1c(=O)n(C)c(=O)c2cn(Cc3cccc4ccccc34)cc21	4.41			14 µL/min/mg	1 µM (≈ 0.361 µg/mL)	
CC1CN(C(=O)c2cc3ccccc3[nH]2)CCN1 (stereo not given)	0.94	8 µL/min/mg				
CCOC(=O)Nc1cc2c(c(N)n1)N=C(c1ccccc1)CCN2			0.0544	66.1 µL/min/mg		
CCN(C(=O)Cc1ccc(S(C)(=O)=O)cc1)C1CCN(CCC(c2ccccc2)c2ccc(NC(=O)C(C)(C)C)cc2)CC1 (stereo not given)	2.98	< 3 µL/min/mg			100 µM (≈ 61.8 µg/mL)	
COc1cc2ncnc(Nc3ccc(OCc4ccccn4)c(C)c3)c2cc1OC	3.6	15 µL/min/mg			0.9 µM (≈ 0.362 µg/mL)	

SMILES	logD ([1]; pH 7.4, LogD7.4)	microsomal CLint ([2]; liver microsomes)	fraction unbound at 5 h [3]	microsomal CLint ([2]; microsomes)	solubility thermodynamic [4]	logD ([1]; pH 7.4)
Cc1ccc2c(c1)c(-c1ccnc3ccc(C(F)(F)F)cc13)c(C)n2CC(=O)O	1.78	23 µL/min/mg				
Cc1nc(CSc2nc(N[C@H](C)CO)c3sc(N)nc3n2)cs1	1.73			3 µL/min/mg		
CCc1nc2c(N)nc3ccccc3c2n1CC(C)C		< 3 µL/min/mg	0.117			
CCO[C@@H]1OC(=O)C[C@@H]1NC(=O)[C@@H]1CCCN2C(=O)CC[C@H](NC(=O)c3nccc4ccccc34)C(=O)N12	1.16	< 3 µL/min/mg				
Fc1cnc(Nc2ccccc2)nc1Nc1ccccc1		7 µL/min/mg			1.3 µM (≈ 0.364 µg/mL)	
CN(CCOc1ccccc1-c1cc(C(N)=O)c(NC(N)=O)s1)Cc1ccccc1	3.46	> 150 µL/min/mg			1.5 µM (≈ 0.637 µg/mL)	
NC1CCN(c2nccc(C(=O)NCC34CC5CC(CC(C5)C3)C4)c2Cl)CC1	1.19			41 µL/min/mg		
Cc1ccc2nc(CCNCCCO)ccc2c1NC(=O)CC12CC3CC(CC(C3)C1)C2	1.18	33 µL/min/mg				
Cc1cc(Nc2cncc(N[C@@H](C)c3ccc(F)cn3)n2)[nH]n1		34.7 µL/min/mg	0.22			
Cc1cc(Nc2cncc(N[C@@H](C)c3ncc(F)cn3)n2)n[nH]1		15.8 µL/min/mg	0.0854			
O=C(NO)c1ccc(NS(=O)(=O)c2ccccc2)cc1	0.75	12 µL/min/mg			316 µM (≈ 92.4 µg/mL)	
Cc1cc2c(C(=O)NC[C@H](C)c3ccccc3)c(O)c(O)cc2c(O)c1-c1c(C)cc2c(C(=O)NC[C@H](C)c3ccccc3)c(O)c(O)cc2c1O [1,1',6,6',7,7'-HEXAHYDROXY-3,3'-DIMETHYL-N5-((R)-2-PHENYLPROPYL)-N5'-((R)-2-PHENYLPROPYL)-2,2'-BINAPHTHYL-5,5'-DICARBOXAMIDE (ATROPISOMERIC MIX)]	3.48			34.7 µL/min/mg		
Nc1ccc(S(=O)(=O)c2ccc(N)cc2)cc1 [DAPSONE]	0.88			< 3 µL/min/mg		
Cc1cccc(Nc2ccccc2C(=O)O)c1C [MEFENAMIC ACID]	1.89			9 µL/min/mg		
O=c1ncn2nc(Sc3ccc(F)cc3F)ccc2c1-c1c(Cl)cccc1Cl [NEFLAMAPIMOD]	2.74	3 µL/min/mg			18.6 µM (≈ 8.11 µg/mL)	
c1ccc2c(c1)[nH]c1cnccc12 [NORHARMANE]		89 µL/min/mg			339 µM (≈ 57 µg/mL)	
